Assay results as given in patent US11001591B2, “TRAF 6 inhibitors” (HELMHOLTZ ZENTRUM MUENCHEN—DEUTSCHES FORSCHUNGSZENTRUM FÜR …, priority 2016, dated 2021).

Experiments:
TRAF6 RZ1 protein = target: T1, TRAF6 RZ1 protein (Homo sapiens, UniProt Q9Y4K3); test: 2D-NMR (SOFAST-HMQC) binding; details: protein:compound 1:5
T1 construct: RING-Zincfinger1 (RZ1) domain (residues 50-159) of TRAF6 wildtype; GST (N, cleaved yes); made in house; host or cells: E. coli BL21 codon plus RIPL
Method: To determine whether the inhibitory compounds directly bind to TRAF6 rather than to Ubc13, 2D-NMR experiments were conducted. Untagged ^15N-labeled TRAF6 RZ1 protein (c=120 μM) and compound (c=20 mM) were incubated at a ratio of 1:5 in a 3 mm NMR tube for 10 minutes before spectra acquisition. To observe chemical shift perturbations upon compound addition, two-dimensional SOFAST-HMQC spectra were acquired. All measurements were performed using the Bruker Avance 600 MHz spectrometer.

TRAF6 = target: T2, TRAF6 (Homo sapiens, UniProt Q9Y4K3); test: In vitro ubiquitination assay (Western blot), TRAF6 with Ubc13/Uev1a; format: biochemical
T2 construct: made in house
T2 sequence (Q9Y4K3 50-159 limits assumed, species assumed): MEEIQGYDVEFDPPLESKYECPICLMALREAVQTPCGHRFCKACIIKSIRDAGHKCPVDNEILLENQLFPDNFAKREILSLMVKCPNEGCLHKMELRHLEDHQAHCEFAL
Method: The ability of TRAF6 to form K63-linked poly-ubiquitin chains in conjunction with Ubc13 was analyzed after compound treatment. Therefore, untagged TRAF6WT and TRAF6D57K, respectively were recombinantly purified. 0.125 μM of TRAF6 protein was pre-incubated with DMSO or compound in a total volume of 100 μL in K63 assay buffer (25 nM Tris-HCl pH 7.6; 250 nM MgCL2; […] creatine phosphate; 0.3 U/mL inorganic pyrophosphatase; 0.3 U/mL creatine phosphokinase) for 30 minutes at room temperature. Small aliquots for input samples were taken. A master mix containing 0.01 μM E1-activating enzyme (UBE1) (Boston Biochem), 0.2 μM E2-conjugating enzyme complex (Ubc13/Uev1a) (Boston Biochem), 1 mM ZnCl2, 2 mM ATP und 4 μM mono-ubiquitin (Boston Biochem) was added to the TRAF6 protein and the reaction mixture was incubated for 120 minutes at 37° C. The reaction was stopped by adding 4×SDS loading buffer and boiling at 95° C. for 5 minutes. The input samples were analyzed using the Pierce Silver Stain Kit (Thermo Fisher Scientific). Ubiquitination was detected in Western Blot analysis using an ubiquitin antibody.

ITCH = target: T3, ITCH (Homo sapiens, UniProt Q96J02); test: In vitro ubiquitination assay, ITCH; format: biochemical; details: HECT E3 ligase
T3 construct: purchased Boston Biochem one of K-102, K-260, K-200B, K-220, K-240, K-270
T3 sequence (Q96J02 whole entry): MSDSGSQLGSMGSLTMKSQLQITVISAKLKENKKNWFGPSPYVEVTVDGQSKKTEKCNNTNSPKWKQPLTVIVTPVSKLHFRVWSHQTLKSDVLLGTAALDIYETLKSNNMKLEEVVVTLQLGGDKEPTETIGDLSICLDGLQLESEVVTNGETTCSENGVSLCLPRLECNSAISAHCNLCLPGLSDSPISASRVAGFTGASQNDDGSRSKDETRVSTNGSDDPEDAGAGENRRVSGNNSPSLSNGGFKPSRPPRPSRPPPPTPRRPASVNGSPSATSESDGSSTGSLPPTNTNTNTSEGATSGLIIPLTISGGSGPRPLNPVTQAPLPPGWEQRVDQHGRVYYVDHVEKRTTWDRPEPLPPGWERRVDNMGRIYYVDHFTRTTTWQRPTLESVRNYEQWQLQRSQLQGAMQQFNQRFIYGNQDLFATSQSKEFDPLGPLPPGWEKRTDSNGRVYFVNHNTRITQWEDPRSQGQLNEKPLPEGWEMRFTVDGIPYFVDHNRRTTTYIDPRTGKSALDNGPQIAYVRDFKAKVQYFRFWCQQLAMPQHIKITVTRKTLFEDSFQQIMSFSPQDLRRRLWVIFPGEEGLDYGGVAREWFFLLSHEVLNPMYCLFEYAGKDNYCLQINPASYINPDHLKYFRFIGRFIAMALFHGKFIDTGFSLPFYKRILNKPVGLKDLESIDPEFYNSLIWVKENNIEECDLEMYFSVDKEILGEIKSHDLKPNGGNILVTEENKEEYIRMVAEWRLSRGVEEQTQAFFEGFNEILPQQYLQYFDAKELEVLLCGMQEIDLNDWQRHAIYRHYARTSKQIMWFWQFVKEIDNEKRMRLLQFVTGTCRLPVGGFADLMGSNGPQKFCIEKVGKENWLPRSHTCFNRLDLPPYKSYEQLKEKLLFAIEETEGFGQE
Method: For analysis of clAP1, MDM2, TRIM63, RNF4, ITCH and E6AP mediated poly-ubiquitination, the respective ubiquitin ligase kit from Boston Biochem (K-102, K-260, K-200B, K-220, K-240 and K-270) was used. Here, reaction buffer, E1, E2 and E3 enzyme (and p53 substrate in case of MDM2) were mixed and pre-incubated with compound or DMSO for 5 minutes at room temperature before adding Mg^2+-ATP and mono-ubiquitin for reaction start. Ubiquitination was visualized by Western Blot analyses.

[1] = test system: Diet-Induced-Obesity (DIO) mice; test: Diet-Induced-Obesity (DIO) mouse study; format: in vivo; details: 7.4 mg/kg IP once daily
Method: For MEF cells, 1.2×10^5 cells per sample were seeded, treated with compound for 6 hours and stimulated with either IL-1β or TNFα for 60 minutes. Jurkat T-cells and primary mouse CD4^+ T-cells were seeded at 2×10^5 cells per sample, also treated with compound for 6 hours and stimulated with PMA/lonomycin for 3 hours. RNA was isolated according to the manufacturer's protocol of the Qiagen RNeasy Kit (MEF cells) or the STRATEC INVITRAP® SPIN UNIVERSAL RNA MINI KIT (Jurkat T-cells). The isolation of mRNA from […] white adipose tissue from DIO mice was performed using TRIzol® Reagent according to manufacturer's instruction. To clear the isolated RNA from genomic DNA, samples (up to 5 μg RNA) were treated with RQ1 RNase-Free DNaseI (Promega) as described in the technical manual. For the reverse transcription of RNA into cDNA, the DNaseI digested RNA samples were processed using the SuperScript III First Strand cDNA Synthesis System (Invitrogen/ThermoFisher Scientific) following the manufacturer's protocol. Thereby, random hexamers provided with the kit were used for reverse transcription. cDNA samples were stored at −20° C. For quantification of cDNA in the samples, the LightCylcer480 (Roche) and the KAPA SYBR FAST qPCR Kit were used. For relative quantification, the ΔΔCp method first described by Pfaffl (Pfaffl, M. W., A new mathematical model for relative quantification in real-time RT-PCR. Nucleic Acids Res, 2001. 29(9): p. e45) was applied. The following primer were used for qRT-PCR:
Mice were fed a high-fat-diet until they reached a body weight of at least 40 g and developed […]. These mice were separated in control group and a group for C25-140 (compound 3) injection. Mice were treated every day with 14 μmol/kg (=7.4 mg/kg) C25-140 intraperitoneally for a period of 20 days. Thereby, C25-140 was dissolved in 2.9% DMSO, 1.5% Tween-80 and 1×PBS. Every day before injection, the body weight and food intake were measured. […]

U2OS cells = test: Cell growth of osteosarcoma cell line U2OS; format: cell-based
Method: For analysis of the cell growth of the osteosarcoma cell line U20S, 5×10^3 cells were seeded in 96 well plates. 18 hours later, cells were treated with C25-140 (compound 3) or DMSO for 6 hours. Using a ^137caesium source (HWM-D2000), selected samples were irradiated with a dose of either 2 Gy or 4 Gy. Cell growth was measured every 24 hours for a period of 7 days by counting Hoechst33342 positive cells in an Operetta High-Content Imaging System (PerkinElmer) and the Harmony/Columbus analysis software (PerkinElmer).

T1 sequence (Q9Y4K3 50-159): as the sequence (Q9Y4K3 50-159 limits assumed, species assumed) above

For Cc1nn(-c2ccc3nnc(C)n3n2)c(C)c1CCC(=O)N1CCC(Cc2ccccc2)CC1 [Compound 3, 1-(4-benzylpiperidin-1-yl)-3-(3,5-dimethyl-1-(3-methyl-[1,2,4]triazolo[4,3-b]pyridazin-6-yl)-1H-pyrazol-4-yl)propan-1-one], the “direct binding to TRAF6 (NMR peak shifts)” value (TRAF6 RZ1 protein) was “directly binds”, the “TRAF6 E3 ligase activity to form poly-ubiquitin chains” value (TRAF6) was “dose-dependently diminished” and the ITCH auto-ubiquitination (ITCH) was “not affected”. For the same compound, the “body weight gain under high-fat-diet” value ([1]; 20 days) was “hardly increased body weight”, the food intake ([1]; 20 days, vs vehicle) was “did not differ” and the “IL-1β and VCAM mRNA in adipose tissue” value ([1]; day 20) was “significantly reduced”. The “cell proliferation, compound alone vs 2Gy irradiation” value (U2OS cells; 30 μM) was “same inhibitory impact” and the “cell proliferation, combination with 2Gy irradiation” value (U2OS cells; 30 μM C25-140+2Gy) was “boosted the effect to the region of 4Gy irradiation”.
